How the values were obtained:
[1] = tested on: UGT enzymes of pooled human jejunum microsomes; test: Inhibition of raloxifene glucuronidation (G1, G2) in pooled human jejunum microsomes; type: biochemical; details: jejunum HJ61; inhibitor 50 μM
Procedure: Compounds were eluted using a binary solvent gradient system. […] Solvent B was methanol. […] Detection was at 280 nm.
Standardized incubations utilized […] microsomal protein, 1 mM UDPGA and a 30 min incubation time.

[2] = tested on: T1, UGT enzymes of human liver microsomes; test: Inhibition of 2ME2 glucuronidation (MG1, MG2) in human liver microsomes; type: biochemical; details: liver 062101, 2ME2 50 μM
T1 construct: other: liver 062101
Description: (§1) Compounds were eluted using a binary solvent gradient system where solvent A was dilute phosphoric acid (pH 3) and solvent B was 80:20 acetonitrile-methanol. […] Detection was at 280 nm.

[3] = biological target: T2, UGT1A10 (Homo sapiens, UniProt Q9HAW8); test: Inhibition of raloxifene glucuronidation by recombinant UGT1A10 Bacculosomes; details: UGT1A10
T2 sequence (Q9HAW8 26-530): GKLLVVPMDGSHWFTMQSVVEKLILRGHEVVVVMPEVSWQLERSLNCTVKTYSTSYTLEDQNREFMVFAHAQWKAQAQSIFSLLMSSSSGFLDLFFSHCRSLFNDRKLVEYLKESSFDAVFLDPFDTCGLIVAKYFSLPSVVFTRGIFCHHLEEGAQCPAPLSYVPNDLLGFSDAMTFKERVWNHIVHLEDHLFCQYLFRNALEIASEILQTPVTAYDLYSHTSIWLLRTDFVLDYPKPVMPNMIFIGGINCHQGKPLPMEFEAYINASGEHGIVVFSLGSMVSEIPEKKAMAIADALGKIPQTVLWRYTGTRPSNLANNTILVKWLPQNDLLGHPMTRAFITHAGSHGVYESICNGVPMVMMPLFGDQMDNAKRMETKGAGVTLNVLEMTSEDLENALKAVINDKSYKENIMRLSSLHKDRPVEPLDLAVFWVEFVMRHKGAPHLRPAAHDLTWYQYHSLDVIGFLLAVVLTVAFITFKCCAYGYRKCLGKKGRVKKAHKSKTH
Procedure: (§2) Compounds were eluted using a binary solvent gradient system. Solvent A was water brought to pH 8 with NH4OH. Solvent B was methanol. Solvent flow rate was 1 ml/min and the column temperature was maintained at 50° C. Detection was at 280 nm. […] The system was then returned to the initial conditions and equilibrated for 3 min.

[4] = tested on: T3, UGT enzymes of human liver microsomes; test: Inhibition of estradiol (E2) glucuronidation in human liver microsomes; type: biochemical; details: liver 032101, E2 50 μM
T3 construct: residual metabolism (% of control), E2-3-β-D-glucuronide; other: liver 032101; residual metabolism (% of control), E2-3-β-D-glucuronide
Description: as §1

[5] = tested on: UGT enzymes of human liver microsomes; test: as above; type: biochemical; details: E2 50 μM
Description: as §1

[6] = tested on: T4, UGT enzymes of human liver microsomes; test: as above; type: biochemical; details: liver 032101, E2 50 μM
T4 construct: residual metabolism (% of control), E2-17-β-D-glucuronide; other: liver 032101; residual metabolism (% of control), E2-17-β-D-glucuronide
Description: as §1

[7] = biological target: T5, UGT1A8 (Homo sapiens, UniProt Q9HAW9); test: Inhibition of raloxifene glucuronidation by recombinant UGT1A8 Supersomes; details: UGT1A8
T5 sequence (Q9HAW9 26-530): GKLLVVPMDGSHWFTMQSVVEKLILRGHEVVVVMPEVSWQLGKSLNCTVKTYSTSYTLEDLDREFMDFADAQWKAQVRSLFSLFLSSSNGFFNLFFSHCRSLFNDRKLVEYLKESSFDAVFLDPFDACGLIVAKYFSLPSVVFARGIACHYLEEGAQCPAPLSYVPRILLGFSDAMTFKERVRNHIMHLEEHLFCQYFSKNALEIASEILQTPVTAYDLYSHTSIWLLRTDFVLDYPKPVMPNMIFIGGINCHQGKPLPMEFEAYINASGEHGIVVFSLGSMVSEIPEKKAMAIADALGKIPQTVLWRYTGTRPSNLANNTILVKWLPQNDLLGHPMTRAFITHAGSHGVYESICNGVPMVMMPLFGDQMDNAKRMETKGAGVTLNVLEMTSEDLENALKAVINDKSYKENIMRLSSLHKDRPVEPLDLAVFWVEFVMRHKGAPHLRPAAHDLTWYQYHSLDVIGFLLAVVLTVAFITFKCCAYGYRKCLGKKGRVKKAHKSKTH
Procedure: as §2

[8] = biological target: T6, UGT enzymes of human liver microsomes (Homo sapiens, UniProt P16662); test: Inhibition of zidovudine glucuronidation in human liver microsomes; type: biochemical; details: liver lot 062101
T6 construct: residual metabolism (percentage of control), zidovudine glucuronidation; other: liver lot 062101; residual metabolism (percentage of control), zidovudine glucuronidation; residual metabolism (percentage of control)
T6 sequence (P16662 1-529): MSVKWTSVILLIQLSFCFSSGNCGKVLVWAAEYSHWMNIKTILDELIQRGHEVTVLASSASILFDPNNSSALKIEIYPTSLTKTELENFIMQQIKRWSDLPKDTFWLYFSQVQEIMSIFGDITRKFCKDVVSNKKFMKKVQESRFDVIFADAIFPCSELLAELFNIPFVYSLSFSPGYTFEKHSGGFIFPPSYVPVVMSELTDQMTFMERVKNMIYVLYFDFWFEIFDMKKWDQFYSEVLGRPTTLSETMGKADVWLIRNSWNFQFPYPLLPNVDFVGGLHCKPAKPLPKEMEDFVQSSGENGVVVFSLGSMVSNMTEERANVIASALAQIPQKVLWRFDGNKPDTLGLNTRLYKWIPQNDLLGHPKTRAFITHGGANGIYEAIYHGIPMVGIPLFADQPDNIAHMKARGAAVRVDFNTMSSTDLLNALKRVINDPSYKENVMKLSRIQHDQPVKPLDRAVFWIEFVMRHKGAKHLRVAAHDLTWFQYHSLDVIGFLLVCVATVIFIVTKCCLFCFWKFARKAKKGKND
Procedure: Compounds were eluted using a binary solvent gradient system where solvent A was dilute phosphoric acid (pH 3) and solvent B was acetonitrile.
Standardized incubations utilized 500 μM zidovudine substrate, 1 mg/ml microsomal protein, 5 mM UDPGA and a 30 min incubation time. […] Int.

O=c1c(O)c(-c2ccc(O)c(O)c2)oc2cc(O)cc(O)c12 [Quercetin]
% of control metabolism, raloxifene G1 [1]: 25 (1) %
% of control metabolism, raloxifene G2 [1]: 37 (2) %
residual metabolism (% of control), 2ME2 MG1 ([2]; inhibitor 25 μM): 63 (3) %
residual metabolism (% of control), 2ME2 MG2 ([2]; inhibitor 25 μM): 87 (3) %
residual metabolism (% of control), 2ME2 MG1 ([2]; inhibitor 50 μM): 30 (4) %
residual metabolism (% of control), 2ME2 MG2 ([2]; inhibitor 50 μM): 68 (3) %
residual metabolism (% of control), 2ME2 MG1 ([2]; inhibitor 100 μM): 15 (0) %
residual metabolism (% of control), 2ME2 MG2 ([2]; inhibitor 100 μM): 50 (2) %
inhibition of raloxifene glucuronidation, in words [3]: only a modest effect
residual metabolism (% of control), E2-3-β-D-glucuronide ([4]; inhibitor 50 μM): 29 (1) %
residual metabolism (% of control), E2-3-β-D-glucuronide ([4]; inhibitor 100 μM): 10 (1) %
residual metabolism (% of control), E2-3-β-D-glucuronide ([5]; liver 032101, inhibitor 25 μM): 58 (1) %
residual metabolism (% of control), E2-17-β-D-glucuronide ([5]; liver 032101, inhibitor 25 μM): 94 (3) %
residual metabolism (% of control), E2-3-β-D-glucuronide ([5]; liver 062101, inhibitor 25 μM): 56 (3) %
residual metabolism (% of control), E2-17-β-D-glucuronide ([5]; liver 062101, inhibitor 25 μM): 83 (1) %
residual metabolism (% of control), E2-3-β-D-glucuronide ([5]; liver 062101, inhibitor 50 μM): 30 (1) %
residual metabolism (% of control), E2-17-β-D-glucuronide ([5]; liver 062101, inhibitor 50 μM): 69 (1) %
residual metabolism (% of control), E2-3-β-D-glucuronide ([5]; liver 062101, inhibitor 100 μM): 19 (1) %
residual metabolism (% of control), E2-17-β-D-glucuronide ([5]; liver 062101, inhibitor 100 μM): 57 (2) %
residual metabolism (% of control), E2-17-β-D-glucuronide ([6]; inhibitor 50 μM): 72 (6) %
residual metabolism (% of control), E2-17-β-D-glucuronide ([6]; inhibitor 100 μM): 50 (3) %
inhibition of raloxifene glucuronidation, in words [7]: ineffective
residual metabolism (percentage of control), zidovudine glucuronidation ([8]; inhibitor 100 μM): 94 (8) %
residual metabolism (percentage of control), zidovudine glucuronidation ([8]; inhibitor 200 μM): 64 (4) %
